Structures are written as SMILES.

T1 sequence (Q92847 whole entry): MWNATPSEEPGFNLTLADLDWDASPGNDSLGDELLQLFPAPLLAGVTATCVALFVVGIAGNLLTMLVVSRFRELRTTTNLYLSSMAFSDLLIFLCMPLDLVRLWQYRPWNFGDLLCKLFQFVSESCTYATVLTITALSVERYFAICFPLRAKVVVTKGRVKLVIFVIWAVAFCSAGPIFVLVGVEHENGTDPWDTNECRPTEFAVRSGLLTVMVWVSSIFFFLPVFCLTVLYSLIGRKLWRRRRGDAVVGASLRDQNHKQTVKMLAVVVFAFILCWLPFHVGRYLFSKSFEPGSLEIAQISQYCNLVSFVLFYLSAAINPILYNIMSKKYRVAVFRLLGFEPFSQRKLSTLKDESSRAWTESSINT

The assay concerns the target T1, human GHS-R 1a (Homo sapiens, UniProt Q92847).
T1 construct: expressed in transfected cells; host or cells: LLC PK-1 porcine renal epithelial cells (ECACC No. 86121112), isolated plasma membranes
The experiment in a line: GHS-R 1a receptor-ligand binding assay (membrane preparations from transfected LLC PK-1 cells). As to conditions: displacement of 125I-His9-ghrelin (60 pM); membranes of LLC PK-1 cells transfected with human GHS-R 1a; mean of at least two independent experiments in triplicates. Summed up: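 Membranes from LLC PK-1 cells expressing human GHS-R 1a incubated 60 min at 25 °C in 50 mM Tris pH 7.3, 5 mM MgCl2, 2.5 mM EDTA, bacitracin with 60 pM 125I-ghrelin and competitor; nonspecific binding with 10^-6 M ghrelin; filtration read-out.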
As to `COc1ccc(Cn2c(CCc3c[nH]c4ccccc34)nnc2[C@@H](Cc2c[nH]c3ccccc23)NC(=O)[C@H]2CCCCN2)cc1` [compound 88, (R)—N—((R)-1-(5-(2-(1H-indol-3-yl)ethyl)-4-(4-methoxybenzyl)-4H-1,2,4-triazol-3-yl)-2-(1H-indol-3-yl)ethyl)piperidine-2-carboxamide], the IC50 (in general, the concentration needed to halve the response being measured) was 29 nM.

Consider `COc1ccc(Cn2c(CCc3c[nH]c4ccccc34)nnc2[C@@H](Cc2c[nH]c3ccccc23)NC(=O)[C@@H]2CCCN2)cc1` [compound 89, (S)—N—((R)-1-(5-(2-(1H-indol-3-yl)ethyl)-4-(4-methoxybenzyl)-4H-1,2,4-triazol-3-yl)-2-(1H-indol-3-yl)ethyl)pyrrolidine-2-carboxamide], for which the concentration for half-maximal inhibition (IC50) was determined as 9 nM.

As to `COc1ccc(Cn2c(CCc3c[nH]c4ccccc34)nnc2[C@@H](Cc2c[nH]c3ccccc23)NC(=O)Cc2ccccn2)cc1` [compound 91, (R)—N-(1-(5-(2-(1H-indol-3-yl)ethyl)-4-(4-methoxybenzyl)-4H-1,2,4-triazol-3-yl)-2-(1H-indol-3-yl)ethyl)-2-(pyridin-2-yl)acetamide], the IC50 came to 11 nM.

`CC(C)(N)C(=O)N[C@H](Cc1c[nH]c2ccccc12)c1nnc(CCc2c[nH]c3ccccc23)n1Cc1ccc(Br)cc1` [compound 92, (R)—N-(1-(5-(2-(1H-indol-3-yl)ethyl)-4-(4-bromobenzyl)-4H-1,2,4-triazol-3-yl)-2-(1H-indol-3-yl)ethyl)-2-amino-2-methylpropanamide] registered a half-maximal inhibitory concentration (IC50) of 200 nM.

The compound `O=C(N[C@H](Cc1c[nH]c2ccccc12)c1nnc(CCc2ccccc2)n1Cc1cccs1)C1CCNCC1` [compound 94, (R)—N-(2-(1H-indol-3-yl)-1-(5-phenethyl-4-(thiophen-2-ylmethyl)-4H-1,2,4-triazol-3-yl)ethyl)piperidine-4-carboxamide] had an IC50 of 255 nM.

In turn, `COc1cc(Cn2c(Cc3ccccc3)nnc2[C@@H](Cc2c[nH]c3ccccc23)NC(=O)C(C)(C)N)cc(OC)c1` [compound 108, (R)—N-(1-(4-(3,5-dimethoxybenzyl)-5-benzyl-4H-1,2,4-triazol-3-yl)-2-(1H-indol-3-yl)ethyl)-2-amino-2-methylpropanamide] gave a 50% inhibitory concentration (IC50) of 250 nM.

Turning to `COc1ccc(Cn2c(CCc3c[nH]c4ccccc34)nnc2[C@@H](Cc2c[nH]c3ccccc23)NC(=O)Cc2ccncc2)cc1` [compound 136, N—((R)-1-(5-(2-(1H-indol-3-yl)ethyl)-4-(4-methoxybenzyl)-4H-1,2,4-triazol-3-yl)-2-(1H-indol-3-yl)ethyl)-2-(pyridin-4-yl)acetamide], the half-inhibitory concentration (IC50) was found to be 106 nM.

As for `CCc1ccc(Cn2c(CCc3ccccc3)nnc2[C@@H](Cc2c[nH]c3ccccc23)NC(=O)c2ccccn2)cc1` [compound 138, N—((R)-1-(4-(4-ethylbenzyl)-5-phenethyl-4H-1,2,4-triazol-3-yl)-2-(1H-indol-3-yl)ethyl)picolinamide], the IC50 was 44 nM.

Turning to `O=C(N[C@H](Cc1c[nH]c2ccccc12)c1nnc(CCc2ccccc2)n1-c1ccccc1)c1ccccn1` [compound 146, N—((R)-2-(1H-indol-3-yl)-1-(5-phenethyl-4-phenyl-4H-1,2,4-triazol-3-yl)ethyl)picolinamide], the IC50 came to 105 nM.

`CCc1ccc(-n2c(CCc3c[nH]c4ccccc34)nnc2[C@@H](Cc2c[nH]c3ccccc23)NC(=O)c2ccccn2)cc1` [compound 147, N—((R)-1-(5-(2-(1H-indol-3-yl)ethyl)-4-(4-ethylphenyl)-4H-1,2,4-triazol-3-yl)-2-(1H-indol-3-yl)ethyl)picolinamide] gave an IC50 of 49 nM.

As to `CCc1ccc(-n2c(CCc3c[nH]c4ccccc34)nnc2[C@@H](Cc2c[nH]c3ccccc23)NC(=O)Cc2ccccn2)cc1` [compound 148, N—((R)-1-(5-(2-(1H-indol-3-yl)ethyl)-4-(4-ethylphenyl)-4H-1,2,4-triazol-3-yl)-2-(1H-indol-3-yl)ethyl)-2-(pyridin-2-yl)acetamide], the IC50 turned out to be 96 nM.

`COc1ccc(Cn2c(CCc3c[nH]c4ccccc34)nnc2[C@@H](Cc2c[nH]c3ccccc23)NC(=O)CN)cc1` [compound 152, N—((R)-1-(5-(2-(1H-indol-3-yl)ethyl)-4-(4-methoxybenzyl)-4H-1,2,4-triazol-3-yl)-2-(1H-indol-3-yl)ethyl)-2-aminoacetamide] came in with an IC50 of 138 nM.

Take `CCc1ccc(Cn2c(CCc3ccccc3)nnc2[C@@H](Cc2c[nH]c3ccccc23)NC(=O)[C@H]2CCCNC2)cc1` [compound 155, (3S)—N—((R)-1-(4-(4-ethylbenzyl)-5-phenethyl-4H-1,2,4-triazol-3-yl)-2-(1H-indol-3-yl)ethyl)piperidine-3-carboxamide]: the IC50 turned out to be 188 nM.

`O=C(N[C@H](Cc1c[nH]c2ccccc12)c1nnc(CCc2c[nH]c3ccccc23)n1-c1ccccc1)c1ccccn1` [compound 157, N—((R)-1-(5-(2-(1H-indol-3-yl)ethyl)-4-phenyl-4H-1,2,4-triazol-3-yl)-2-(1H-indol-3-yl)ethyl)picolinamide] yielded an IC50 of 160 nM.

As for `O=C(N[C@H](Cc1c[nH]c2ccccc12)c1nnc(CCc2c[nH]c3ccccc23)n1-c1ccccc1)C1CCNCC1` [compound 158, N—((R)-1-(5-(2-(1H-indol-3-yl)ethyl)-4-phenyl-4H-1,2,4-triazol-3-yl)-2-(1H-indol-3-yl)ethyl)piperidine-4-carboxamide], the half-inhibitory concentration (IC50) turned out to be 70 nM.

For the compound `COc1ccc(-n2c(CCc3ccccc3)nnc2[C@@H](Cc2c[nH]c3ccccc23)NC(=O)c2ccccn2)c(OC)c1` [compound 159, N—((R)-2-(1H-indol-3-yl)-1-(4-(2,4-dimethoxyphenyl)-5-phenethyl-4H-1,2,4-triazol-3-yl)ethyl)picolinamide], the IC50 stood at 33 nM.

In turn, `COc1ccc(-n2c(CCc3ccccc3)nnc2[C@@H](Cc2c[nH]c3ccccc23)NC(=O)Cc2ccccn2)c(OC)c1` [compound 160, N—((R)-2-(1H-indol-3-yl)-1-(4-(2,4-dimethoxyphenyl)-5-phenethyl-4H-1,2,4-triazol-3-yl)ethyl)-2-(pyridin-2-yl)acetamide] returned a 50% inhibitory concentration (IC50) of 121 nM.

In turn, `COc1ccc(-n2c(CCc3ccccc3)nnc2[C@@H](Cc2c[nH]c3ccccc23)NC(=O)C2CCNCC2)c(OC)c1` [compound 163, N—((R)-2-(1H-indol-3-yl)-1-(4-(2,4-dimethoxyphenyl)-5-phenethyl-4H-1,2,4-triazol-3-yl)ethyl)piperidine-4-carboxamide] came in with an IC50 of 63 nM.

In turn, `O=C(N[C@H](Cc1c[nH]c2ccccc12)c1nnc(Cc2ccccc2)n1Cc1ccccn1)c1ccccn1` [compound 164, N—((R)-1-(5-benzyl-4-((pyridin-2-yl)methyl)-4H-1,2,4-triazol-3-yl)-2-(1H-indol-3-yl)ethyl)picolinamide] displayed an IC50 of 207 nM.

`CC(C)(N)C(=O)N[C@H](Cc1c[nH]c2ccccc12)c1nnc(CCc2ccccc2)n1Cc1ccccc1` [compound 173, N—((R)-1-(4-benzyl-5-phenethyl-4H-1,2,4-triazol-3-yl)-2-(1H-indol-3-yl)ethyl)-2-amino-2-methylpropanamide] yielded an IC50 of 114 nM.

As to `CC(C)(N)C(=O)N[C@H](Cc1c[nH]c2ccccc12)c1nnc(CCc2c[nH]c3ccccc23)n1-c1ccccc1` [compound 175, N—((R)-1-(5-(2-(1H-indol-3-yl)ethyl)-4-phenyl-4H-1,2,4-triazol-3-yl)-2-(1H-indol-3-yl)ethyl)-2-amino-2-methylpropanamide], the IC50 came to 140 nM.

As for `COc1ccc(Cn2c(CCc3ccccc3)nnc2[C@@H](Cc2c[nH]c3ccccc23)NC(=O)c2ccccc2)cc1` [compound 176, N—((R)-1-(4-(4-methoxybenzyl)-5-phenethyl-4H-1,2,4-triazol-3-yl)-2-(1H-indol-3-yl)ethyl)benzamide], the half-inhibitory concentration (IC50) came out at 80 nM.

For the compound `COc1ccc(Cn2c(CCc3ccccc3)nnc2[C@@H](Cc2c[nH]c3ccccc23)NC(=O)C(C)(C)N)c(OC)c1` [compound 179, N—((R)-1-(4-(2,4-dimethoxybenzyl)-5-phenethyl-4H-1,2,4-triazol-3-yl)-2-(1H-indol-3-yl)ethyl)-2-amino-2-methylpropanamide], the IC50 came out at 62 nM.

For the compound `COc1ccc(Cn2c(CCc3ccccc3)nnc2[C@@H](Cc2c[nH]c3ccccc23)NCCN)c(OC)c1` [compound 180, N-1-((R)-1-(4-(2,4-dimethoxybenzyl)-5-phenethyl-4H-1,2,4-triazol-3-yl)-2-(1H-indol-3-yl)ethyl)ethane-1,2-diamine], the 50% inhibitory concentration (IC50) was found to be 189 nM.

For `O=C(N[C@H](Cc1c[nH]c2ccccc12)c1nnc(CCc2ccccc2)n1Cc1ccco1)c1ccccn1` [compound 182, N—((R)-1-(4-((furan-2-yl)methyl)-5-phenethyl-4H-1,2,4-triazol-3-yl)-2-(1H-indol-3-yl)ethyl)picolinamide], the concentration for half-maximal inhibition (IC50) amounted to 81 nM.

`COc1ccc(Cn2c(CCc3ccccc3)nnc2[C@@H](Cc2c[nH]c3ccccc23)NC(=O)C2CCOCC2)cc1` [compound 184, N—((R)-1-(4-(4-methoxybenzyl)-5-phenethyl-4H-1,2,4-triazol-3-yl)-2-(1H-indol-3-yl)ethyl)-tetrahydro-2H-pyran-4-carboxamide] came in with an IC50 of 5.9 nM.

In the case of `COc1ccc(Cn2c(CCc3ccccc3)nnc2[C@@H](Cc2c[nH]c3ccccc23)NC(=O)[C@@H](N)Cc2ccccc2)cc1` [compound 186, (2S)—N—((R)-1-(4-(4-methoxybenzyl)-5-phenethyl-4H-1,2,4-triazol-3-yl)-2-(1H-indol-3-yl)ethyl)-2-amino-3-phenylpropanamide], the half-maximal inhibitory concentration (IC50) came out at 175 nM.

On to `COc1ccc(Cn2c(CCc3c[nH]c4ccccc34)nnc2[C@@H](Cc2c[nH]c3ccccc23)NS(=O)(=O)c2ccc(C)cc2)c(OC)c1` [compound 187, (R)-1-(5-(2-(1H-indol-3-yl)ethyl)-4-(2,4-dimethoxybenzyl)-4H-1,2,4-triazol-3-yl)-2-(1H-indol-3-yl)-N-tosylethanamine], for which the IC50 came out at 66 nM.

The record behind these values is patent publication US8710089B2, “Triazole derivatives as ghrelin analogue ligands of growth hormone secretagogue receptors” (Zentaris GmbH, priority 2005, dated 2014).
